Earlier results as cited in patent publication US7872019B2, “Polymorphs and amorphous form of (S)-(+)-clopidogrel bisulfate” (Cadila Healthcare Limited, priority 2003, dated 2011).

Key:
[1] = comparison of the two enantiomers, in words
platelet aggregation = conditions: comparison of the two enantiomers, in words

Compound	tolerance [1]	antiagregant platelet activity (platelet aggregation)
COC(=O)[C@@H](c1ccccc1Cl)N1CCc2sccc2C1 (single isomer, unassigned) [levorotatory enantiomer of (I)]	less tolerated	less active
COC(=O)[C@H](c1ccccc1Cl)N1CCc2sccc2C1 [dextrorotatory enantiomer of formula (I) of Clopidogrel]	–	excellent antiagregant platelet activity
